For one series, the target named is T1, Dopamine D2 receptor (Homo sapiens, UniProt P14416).
T1 construct: purchased Receptor Biology (now owned by NEN) RBHD2CM
Briefly: Dopamine D2 receptor binding assay ([125I]iodospiperone). The procedure:
The assay buffers used are 50 mM Tris-HCl pH 7.4, 120 mM NaCl, 5 mM KCl, 5 mM MgCl2, 1 mM EDTA for the Dopamine D2s receptor binding assay. […] The membranes used are from Receptor Biology (now owned by NEN), Cat # RBHD2CM for the D2 receptor.
Compounds are obtained as 10 mM stocks in 100% DMSO. They are diluted to 1 mM in 100% DMSO by adding 180 μL DMSO to 20 μL of stock in 96 well plates using a multidrop. […] This is done using a TECAN robot.
The radioligand is diluted in assay buffer to provide 0.1 nM for the D2 assay. Each vial of membranes is diluted up to 92 mL in assay buffer. The final assay volume is 250 μL consisting of 210 μl of diluted membranes, 20 μL of compound or 10% DMSO for total binding, and 20 μL of diluted radioligand. The compounds are transferred from drug dilution plates into coming 96 well assay plates using a 96 well Multimek pipettor. Radioligand and membranes are added to assay plates using multidrop pipettors. Non-specific binding is determined in wells containing a final concentration of 5 μM haloperidol. The final drug concentration range in half logs is from 10 μM down to 0.1 nM.
After addition of drug, membrane, and ligand, the plates are incubated for 2 hours at room temperature. During this time 96 well Millipore filter plates (MAFBNOB50) are soaked for a least 30 minutes with 200 μL per well of 0.5% polyethyleneimine.
The 0.5% PEI is removed from filterplate wells using a TiterTek MAP aspirator and 200 μL of the incubation mixture is transferred from the incubation plate to the filterplate after mixing. This transfer is done using the 96 tip Mutimek pipettor. After transfer to the filterplate filterplates are extracted and ished twice with 220 μL per well of cold buffer on the MAP aspirator. The peel away bottoms are removed from the filterplates and 60 μL per well of microscint 20 scintillation fluid is added per well using a multidrop. […]

Series [1] concerns the target T2, hypothalamic histamine H1 receptors (Rattus norvegicus, UniProt P31390).
T2 construct: from tissue; host or cells: hypothalamus of male Sprague Dawley rats
Briefly: Histamine H1 ex vivo binding ([3H]-pyrilamine, rat hypothalamic homogenates). Type of series: in vivo. The conditions noted are these: rat hypothalamus; dose required to occupy 50% of histamine H1 receptors; 90 minutes after gavage. How it is done: The in vivo potency of a compound to occupy hypothalamic histamine H1 receptors in the rat was determined using a histamine H1 ex vivo binding assay.
(§1) Male Sprague Dawley rats (Harlan Sprague Dawley, Inc., Indianapolis, Ind.) weighing 110 grams were fasted overnight. […] All other compounds were administered at 5 ml/kg in dilute lactic acid. Tissues were dissected, frozen on dry ice and stored at −70° C. prior to analysis.
Ex vivo binding of the histamine H1 antagonist [^3H]-pyrilamine (NEN Life Science Products) to rat hypothalamic homogenates was determined. Tissues were homogenized in 600 μl incubation buffer (50 mM sodium phosphate monobasic, pH 7.4) and pre-incubated 10 minutes at 37° C. to remove endogenous histamine. Triplicate tubes, each containing 100 μl homogenate, were combined with 1 ml buffer containing 3 nM [^3H]-pyrilamine and incubated 30 minutes at 25° C. […] [^3H]-pyrilamine binding was measured after separation filtration using a Brandell cell harvester with GF/C filters which had been soaked in 0.1% polyethylenimine. ED50 values were determined using the Allfit statistical program for displacement binding.

Another series concerns the target T3, dopamine D2 receptors (Rattus norvegicus, UniProt P61169).
T3 construct: from tissue; host or cells: male Sprague Dawley rats, nucleus accumbens (in vivo)
The series is described as follows: DOPAC concentrations in rat nucleus accumbens (in vivo D2 receptor blockade). The settings on record: dose that increases DOPAC to 200% of control, 90 minutes after gavage. How it is done: Antipsychotics are believed to exert at least part of their therapeutic effects through blockade of the dopamine D2 receptor. The ability of a compound to block dopamine D2 receptors in the rat in vivo was determined by measuring the effect of the compound on the level of DOPAC (3,4-dihydroxyphenylacetic acid), a metabolite of dopamine, in nucleus accumbeus of the rat. Dopamine D2 receptor antagonists increase the release of dopamine into the synapse due to blockade of the dopamine D2 autoreceptor. This increased release of dopamine cannot be directly measured, since the efficiency of the dopamine reuptake system prevents increases in synaptic dopamine concentrations. Instead, increases in the levels of the dopamine metabolites DOPAC (3,4-dihydroxyphenylacetic acid) and HVA (homovanillic acid) reflect increased neuronal dopaminergic activity in vivo.
as §1
Rat nucleus accumbens DOPAC (3,4-dihydroxyphenylacetic acid) concentrations were measured using high-pressure liquid chromatography with electrochemical detection (HPLC-EC). Tissues were sonicated in 1 ml 0.1N TCA. After centrifugation, a 25 µl aliquot of supernatant was injected onto a BDS Hypersyl C18 column (150×4.6 mm, Keystone Scientific). The elution buffer contained 75 mM sodium phosphate monobasic, 0.5 mM EDTA, 350 mg/L 1-octanesulfonate sodium, 7% acetonitrile (v/v) and 0.7% tetrahydrofuran (v/v), pH 3.0. The flow rate was 1.2 ml/min at 40° C. Peak heights were measured at 750 mV at 10 nA sensitivity and compared with samples containing known amounts of DOPAC standards.

The target in series [2] is T4, human Histamine-1 receptors (Homo sapiens, UniProt P35367).
T4 construct: expressed in transfected cells
The series is described as follows: 3H-Pyrilamine SPA binding to human Histamine-1 receptors. The conditions noted are these: read-out: Receptor affinity (Ki, nM) H1. The procedure: Their ability of a compound to block histamine H1 receptors can be estimated in vitro by measuring the in vitro histamine H1 receptor affinity. […] The ratio of in vitro histamine H1 receptor affinity divided by the in vitro dopamine D2 receptor affinity, both expressed as Ki's, is an estimate of a compound's likelihood to cause weight gain at therapeutic levels. […] Incubations were performed in a total volume of 200 μl in 96 well assay plates. 50 μl ^3H-pyrilamine (NEN, 20 Ci/mmol, final concentration=3.0 nM) was added to 50 μl of test compounds dissolved in water (±DMSO and/or glacial acetic acid). 50 μl Wheat Germ Agglutinin (WGA) bead, at 1 mg/well, (Amersham Life Sciences) in assay buffer (67 mM TrisCl pH 7.4) were then added. Membrane homogenate from cells expressing human Histamine-1 receptors, approximately 700,000 cells/well, was added last. The plates were covered with sealing tape (FasCal) and allowed to incubate at room temperature for 2 hours. The plates were then centrifuged at approximately 200×g for 10 minutes at room temperature. The amount of ^3H-pyrilamine bound to the membranes, ie proximate to the WGA bead, was then determined using a Wallac MicroBeta Trilux Scintillation Counter (Wallac, Inc.).

Setting [3] is: relative Ki scale of Table 5, read-out: Relative D2 Receptor Binding Affinity Ki.
Setting [4] is: read-out: Receptor affinity (Ki, nM) D2.

Structures can show the parent of a compound that is named as a salt. Where two headings read alike, the source gives them in different places. Where only a bound is given, the exact number is not on record here.

T2 sequence (P31390 whole entry): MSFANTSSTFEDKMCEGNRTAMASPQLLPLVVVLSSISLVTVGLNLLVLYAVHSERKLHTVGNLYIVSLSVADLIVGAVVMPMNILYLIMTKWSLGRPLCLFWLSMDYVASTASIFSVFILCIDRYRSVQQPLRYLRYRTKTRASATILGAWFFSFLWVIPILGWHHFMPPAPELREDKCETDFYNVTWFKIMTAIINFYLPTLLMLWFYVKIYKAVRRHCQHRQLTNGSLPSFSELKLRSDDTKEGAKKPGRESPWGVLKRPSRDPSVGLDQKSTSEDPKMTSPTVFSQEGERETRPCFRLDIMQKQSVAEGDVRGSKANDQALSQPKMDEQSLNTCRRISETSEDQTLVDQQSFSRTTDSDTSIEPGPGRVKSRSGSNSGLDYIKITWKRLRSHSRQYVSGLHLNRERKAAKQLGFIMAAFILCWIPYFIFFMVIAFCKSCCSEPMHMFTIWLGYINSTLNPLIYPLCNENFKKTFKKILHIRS
T4 sequence (P35367 whole entry): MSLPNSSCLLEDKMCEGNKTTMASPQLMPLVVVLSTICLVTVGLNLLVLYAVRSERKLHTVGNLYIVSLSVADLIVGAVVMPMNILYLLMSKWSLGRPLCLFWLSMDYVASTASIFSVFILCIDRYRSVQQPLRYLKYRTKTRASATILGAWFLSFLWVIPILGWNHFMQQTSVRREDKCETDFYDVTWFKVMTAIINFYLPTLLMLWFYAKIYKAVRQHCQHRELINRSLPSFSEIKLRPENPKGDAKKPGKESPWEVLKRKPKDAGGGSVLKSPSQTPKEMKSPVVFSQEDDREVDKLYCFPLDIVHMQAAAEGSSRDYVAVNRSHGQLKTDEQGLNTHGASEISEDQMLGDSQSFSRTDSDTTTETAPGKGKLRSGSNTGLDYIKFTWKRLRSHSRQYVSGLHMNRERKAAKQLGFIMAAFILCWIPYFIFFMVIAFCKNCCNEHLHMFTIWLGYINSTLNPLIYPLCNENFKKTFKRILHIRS
T1 sequence (P14416 1-414 isoform P14416-2): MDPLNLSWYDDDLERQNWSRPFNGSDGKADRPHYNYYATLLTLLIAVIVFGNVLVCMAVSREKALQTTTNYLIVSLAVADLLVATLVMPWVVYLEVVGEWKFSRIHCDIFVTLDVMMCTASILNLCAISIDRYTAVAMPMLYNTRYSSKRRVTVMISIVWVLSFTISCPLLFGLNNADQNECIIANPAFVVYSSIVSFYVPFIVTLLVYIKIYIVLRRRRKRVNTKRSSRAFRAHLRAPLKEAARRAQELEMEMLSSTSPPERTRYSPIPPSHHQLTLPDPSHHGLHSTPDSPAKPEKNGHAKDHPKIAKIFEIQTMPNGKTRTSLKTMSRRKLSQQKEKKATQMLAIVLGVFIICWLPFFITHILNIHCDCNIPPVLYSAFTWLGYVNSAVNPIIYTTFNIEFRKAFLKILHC
T3 sequence (P61169 whole entry): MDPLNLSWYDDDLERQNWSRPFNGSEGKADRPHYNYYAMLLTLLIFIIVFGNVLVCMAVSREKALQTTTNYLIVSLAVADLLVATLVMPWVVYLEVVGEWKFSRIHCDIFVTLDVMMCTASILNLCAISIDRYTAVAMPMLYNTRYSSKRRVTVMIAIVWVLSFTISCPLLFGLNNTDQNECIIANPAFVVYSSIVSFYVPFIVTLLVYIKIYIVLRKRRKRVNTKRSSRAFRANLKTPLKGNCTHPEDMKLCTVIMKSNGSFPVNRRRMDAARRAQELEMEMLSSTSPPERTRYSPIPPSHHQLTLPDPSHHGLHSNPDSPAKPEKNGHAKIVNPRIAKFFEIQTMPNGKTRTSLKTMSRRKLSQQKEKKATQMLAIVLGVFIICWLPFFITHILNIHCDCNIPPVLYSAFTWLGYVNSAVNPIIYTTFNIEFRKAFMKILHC

As for `COCC[C@H]1CN(C2=Nc3ccccc3Nc3ccc(C)cc32)CCN1` [Example 199, (S)-2-Methyl-11-[3-(2-methoxy-ethyl)-piperazin-1-yl]-5H-dibenzo[b,e][1,4]diazepine], the melting point (usually the temperature, or range, at which the solid turns liquid) is 63 °C (dec.). The inhibitory constant (Ki) (as a rule, a dissociation constant, usually derived from enzyme kinetics or from competition with a known ligand) at Dopamine D2 receptor (setting [3]) lay in the range of 100 to 1000 nM.

In the case of `COCC[C@H]1CN(C2=Nc3ccccc3Nc3ccc(C)cc32)CCN1C` [Example 216, (S)-2-Methyl-11-[3-(2-methoxy-ethyl)-4-methyl-piperazin-1-yl]-5H-dibenzo[b,e][1,4]diazepine], the melting point was 60 °C (dec.). Moreover, the inhibition constant Ki on Dopamine D2 receptor (setting [3]) lay in the range of 100 to 1000 nM.

As to `COCC[C@H]1CN(C2=Nc3ccccc3Nc3ccc(C(F)(F)F)cc32)CCN1C` [Example 221, (S)-2-Trifluoromethyl-11-[3-(2-methoxy-ethyl)-4-methyl-piperazin-1-yl]-5H-dibenzo[b,e][1,4]diazepine], the melting point was 48 to 56 °C.

In the case of `Cc1cc2c(s1)Nc1ccccc1N=C2N1CCN[C@@H](CCO)C1.Cl.Cl` [Example 240, (S)-2-[4-(2-Methyl-4H-3-thia-4,9-diazabenzo[f]azulene-10-yl)-piperazin-2-yl]ethanol dihydrochloride], the melting point is > 250 °C (dec.). In addition, the Ki at Dopamine D2 receptor (setting [3]) was in the range of 10 to 100 nM.

Regarding `Cc1cc2c(s1)Nc1ccccc1N=C2N1CCN[C@H](CCO)C1.Cl.Cl` [Example 241, (R)-2-[4-(2-Methyl-4H-3-thia-4,9-diazabenzo[f]azulene-10-yl)-piperazin-2-yl]ethanol dihydrochloride], the melting point is > 250 °C (dec.). Further, at Dopamine D2 receptor (setting [3]), the Ki fell in the range of 100 to 1000 nM.

For the compound `Cc1cc2c(s1)Nc1ccccc1N=C2N1CCN[C@@H](COc2ccccc2)C1` [Example 244, (R)-10-(3-Phenoxymethyl-piperazin-1-yl)-2-methyl-4H-3-thia-4,9-diaza-benzo[f]azulene], the melting point was 64 to 81 °C.

With `COCC[C@H]1CN(C2=Nc3cc(F)c(F)cc3Nc3sc(C)cc32)CCN1` [Example 254, (S)-6,7-Difluoro-10-[3-(2-methoxy-ethyl)-piperazin-1-yl]-2-methyl-4H-3-thia-4,9-diaza-benzo[f]azulene], the melting point was 198 to 202 °C (dec.).

In the case of `COCC[C@H]1CN(C2=Nc3cc(Cl)ccc3Nc3sc(C)cc32)CCN1` [Example 258, (S)-7-Chloro-10-[3-(2-methoxy-ethyl)-piperazin-1-yl]-2-methyl-4H-3-thia-4,9-diazabenzo[f]azulene], the melting point was 179 to 183 °C (dec.).

`Cc1cc2c(s1)Nc1ccccc1N=C2N1CCN(C)[C@@H](CO)C1` [Example 259, (R)-[1-Methyl-4-(2-methyl-4H-3-thia-4,9-diaza-benzo[f]azulen-10-yl)-piperazin-2-yl]-methanol] returned a melting point of 118 to 124 °C.

In turn, `COC[C@H]1CN(C2=Nc3ccccc3Nc3sc(C)cc32)CCN1C` [Example 260, (R)-10-(3-Methoxymethyl-4-methyl-piperazin-1-yl)-2-methyl-4H-3-thia-4,9-diaza-benzo[f]azulene] displayed a melting point of 76 to 80 °C.

In the case of `Cc1cc2c(s1)Nc1ccccc1N=C2N1CCN(C)[C@@H](COc2ccccc2)C1` [Example 265, (R)-10-(4-Methyl-3-phenoxymethyl-piperazin-1-yl)-2-methyl-4H-3-thia-4,9-diaza-benzo[f]azulene], the melting point is 74 to 88 °C.

As for `Cc1cc2c(s1)Nc1ccccc1N=C2N1CCN(C)[C@@H](COCc2ccccc2)C1` [Example 270, (R)-10-(3-Benzyloxymethyl-4-methyl-piperazin-1-yl)-2-methyl-4H-3-thia-4,9-diaza-benzo[f]azulene], the melting point was in the range of 55 to 65 °C.

On to `COCC[C@H]1CN(C2=Nc3ccc(F)cc3Nc3sc(C)cc32)CCN1C` [Example 279, (S)-6-Fluoro-10-[3-(2-methoxy-ethyl)-4-methyl-piperazin-1-yl]-2-methyl-4H-3-thia-4,9-diaza-benzo[f]azulene hydrochloride], for which the “In vivo activity H1: H1 ex vivo binding (ED50)” value (“In vivo activity H1” for short) in series [1] is >30 mg/kg, po. The “In vivo activity D2: DOPAC elevation (ED200)” value (from here on “In vivo activity D2”) at dopamine D2 receptors is listed as 6 mg/kg, po. The inhibition constant Ki was determined as 24 nM in series [2] and 6 nM at Dopamine D2 receptor (setting [4]).

On to `COCC[C@H]1CN(C2=Nc3cc(F)c(F)cc3Nc3sc(C)cc32)CCN1C.Cl.Cl` [Example 288, (S)-6,7-Difluoro-10-[3-(2-methoxy-ethyl)-4-methyl-piperazin-1-yl]-2-methyl-4H-3-thia-4,9-diaza-benzo[f]azulene hydrochloride], for which the “In vivo activity H1” value in series [1] is >30 mg/kg, po. Also, on dopamine D2 receptors, the “In vivo activity D2” value is 6.4 mg/kg, po. Also, the Ki is 80 nM in series [2] and 11 nM at Dopamine D2 receptor (setting [4]).

Regarding `COCC[C@H]1CN(C2=Nc3cc(Cl)ccc3Nc3sc(C)cc32)CCN1C` [Example 292, (S)-7-Chloro-10-[3-(2-methoxy-ethyl)-4-methyl-piperazin-1-yl]-2-methyl-4H-3-thia-4,9-diaza-benzo[f]azulene dihydrochloride], the “In vivo activity H1” value in series [1] is >30 mg/kg, po. In addition, the “In vivo activity D2” value on dopamine D2 receptors was 7.5 mg/kg, po. The Ki in series [2] came to 48 nM; on Dopamine D2 receptor (setting [4]) it was 13 nM.

For the compound `COCC[C@H]1CN(C2=Nc3ccccc3Nc3sc(C(C)C)nc32)CCN1C.Cl.Cl` [Example 327, (S)-10-[3-(2-Methoxyethyl)-4-methylpiperazin-1-yl]-2-isopropyl-4H-3-thia-1,4,9-triazabenzo[f]azulene dihydrochloride], in series [1], the “In vivo activity H1” value is reported as >30 mg/kg, po. In addition, at dopamine D2 receptors, the “In vivo activity D2” value was 4 mg/kg, po. For the same compound, the Ki in series [2] was 91 nM; on Dopamine D2 receptor (setting [4]), 9 nM; at Dopamine D2 receptor (setting [3]), less than 10 nM.

Values taken from patent publication US7384934B2, “Piperazine substituted aryl benzodiazepines” (Eli Lilly and Company, priority 2002, dated 2008).
